The source of these data is PubChem BioAssay (NCI).

Test in all cases: NCI anticancer screen, dose series, 48 h
Assay [1] relates to HOP-92 NSCLC.
For assay [2], the system named is LOX IMVI melanoma.
Assay [3] concerns DMS 273 small cell lung.
Assay [4] has as its system KM20L2 colon.
The subject of assay [5] is DMS 114 small cell lung.
Assay [6] deals with HCT-116 colon.
Assay [7] has as its system NCI-H226 lung.
Assay [8] deals with SNB-78 CNS.
For assay [9], the system named is OVCAR-5 ovarian.
The test system of assay [10] is UACC-257 melanoma.
Assay [11] relates to A498 renal.
Assay [12] has as its system HS 578T breast.

The structures appear in SMILES notation. Values joined by “and” are separate entries in the source; they are usually repeats but may differ in a detail not shown here. Identical values can stand only once.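 Assay format: 96-well plates, 48-hour exposure. GI50 is the concentration that inhibits growth by half. The concentration for full growth arrest is given as TGI.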 Where only a bound is given, the exact number is not on record here.

`CCCCC1(C(NC(=O)c2ccccc2Cl)c2ccncc2)C(=O)N(c2ccccc2)N(c2ccccc2)C1=O` (configuration not stated): the TGI in assay [1], in [2], in [3], in [4], in assay [5] and in [6] was greater than 100 µM in each case. Also, the TGI in assay [7], in assay [8], in assay [9] and in [10] was greater than 100 µM each time.

With `O=C1CCC(=O)N1Sc1ccccc1`, the TGI in assay [1], in [2], in assay [3], in assay [4], in assay [5] and in assay [6] was greater than 100 µM in each case. Moreover, the TGI in assay [8], in assay [11] and in assay [10] was greater than 100 µM each time.

On to `Cc1ccc2ccc(-c3ccccc3)c3c2c1C(=O)c1ccccc1C3=O`, for which the TGI is 74.4 µM in assay [1]; greater than 100 µM in assay [2]; greater than 100 µM in [3]; greater than 100 µM in assay [4]; greater than 100 µM in assay [5]; greater than 100 µM in assay [6]. Further, the TGI in [7], in [8], in [9], in [11] and in assay [10] was greater than 100 µM each time.

On to `OCC(O)C(O)C(O)c1nn(-c2ccc(F)cc2)c2nc3cc(Cl)c(Cl)cc3nc12` (configuration not stated), for which the TGI in assay [2] was 76.5 µM; in [3], 48.2 µM; in assay [4] it was greater than 100 µM; in assay [5], 71.4 µM; in [6], greater than 100 µM; in assay [7] it was 49.4 µM. The TGI was 27.4 µM in [8], greater than 100 µM in assay [9] and 55.1 µM in assay [10].

With `COc1ccc(Br)c(C(=O)N2CCc3ccccc32)c1N`, the TGI in assay [1] was greater than 100 µM; in assay [2], greater than 100 µM; in [3] it was 99.3 µM; in [4], greater than 100 µM; in assay [5], 79.4 µM; in [6], greater than 100 µM. Also, the TGI in assay [7], in [8], in assay [9] and in assay [10] was greater than 100 µM throughout.

For the compound `O=c1oc2c3ccc4ccccc4c3n(CCN3CCCCC3)c2c2ccccc12`, the TGI in assay [1], in assay [2], in [3], in assay [4], in assay [5] and in assay [6] was greater than 100 µM in each case. Further, the TGI in assay [8] is greater than 31.6 µM; in assay [9] it was greater than 100 µM; in assay [10] it was greater than 100 µM.

As to `COc1cccc(/C=N\NC(=O)C(C)SC(C)C(=O)N/N=C/c2cccc(OC)c2)c1` (configuration not stated), the TGI in assay [1] is 38.8 µM; in [3], 97 µM; in [4] it was greater than 100 µM; in assay [5], 41.6 µM; in [6], 34.7 µM; in assay [7], 47.5 µM. For the same compound, the TGI in assay [8] is greater than 100 µM; in [9] it was greater than 100 µM; in [11], 27 µM; in [10] it was greater than 100 µM.

For the compound `Cc1ccc(S(=O)C(C)C(Cl)c2ccccc2)cc1` (configuration not stated), the TGI in assay [1], in assay [2], in [3], in assay [4], in assay [5] and in [6] was greater than 100 µM throughout. Further, the TGI in assay [7], in [8], in [9], in assay [11] and in assay [10] was greater than 100 µM each time.

As to `C1=CC2CCC1CN2CCC1CNc2ccccc21` (configuration not stated), the TGI in assay [1], in assay [2], in assay [3], in assay [4], in assay [5] and in assay [6] was greater than 100 µM throughout. Further, the TGI in assay [7], in assay [8], in [9], in assay [11] and in [10] was greater than 100 µM each time.

For the compound `O=C(/C=C/c1ccccc1O)c1ccccc1Cl`, the TGI in [1] is greater than 100 µM; in [2] it was 73.6 µM; in assay [3], greater than 100 µM; in [4], greater than 100 µM; in [5] it was 58 µM; in assay [6], greater than 100 µM. Besides, the TGI in assay [7], in [8], in [9], in assay [11] and in assay [10] was greater than 100 µM in each case.

Take `CC1(C)OC(=O)C(=C2CCC(C(=O)Nc3cccc(C(F)(F)F)c3)N2)C(=O)O1` (configuration not stated): the TGI in [1], in assay [2], in [3], in assay [4], in assay [5] and in assay [6] was greater than 100 µM in each case. For the same compound, the TGI in assay [7], in assay [8], in [9], in assay [11] and in [10] was greater than 100 µM throughout.

As to `Cc1cc(C)nc(NS(=O)(=O)c2ccc(Nc3c4ccccc4nc4c(C(=O)NCCN(C)C)cccc34)cc2)n1`, the TGI in [2] is 11.7 µM; in assay [3], 11.2 µM; in assay [4], 20.2 µM; in assay [5] it was 17.5 µM; in [6] it was 15.5 µM; in assay [7] it was 6.21 µM. Further, the TGI in assay [8] stood at 45.2 µM; in assay [9], 29.4 µM.

Consider `Cc1cc(Cl)ccc1NC(=O)C1C(=O)N(c2ccc(Cl)cc2C)C(=O)/C1=N\NC(N)=S` (configuration not stated), for which the TGI is 46.6 µM in assay [1]; greater than 100 µM in assay [3]; 46.8 µM in [4]; 98.7 µM in assay [5]; 46.2 µM in [6]; greater than 100 µM in assay [8]. For the same compound, the TGI is 53.9 µM in assay [9], 72.4 µM in assay [11] and greater than 100 µM in assay [10].

Consider `COc1cc(OC)c2c(=O)c3cccc([N+](=O)[O-])c3n(C)c2c1`, for which the TGI in assay [2], in [3], in assay [4], in assay [5], in assay [8] and in assay [10] was greater than 100 µM in each case.

On to `N#CCc1cccc(CC#N)c1Br`, for which the TGI in assay [1], in assay [2], in assay [3], in assay [4], in [5] and in assay [6] was greater than 100 µM throughout. The TGI in assay [7], in [8], in assay [9] and in assay [10] was greater than 100 µM in each case.

As for `O=C(O)CSc1n[nH]c(-c2ccco2)n1`, the TGI in assay [1], in assay [2], in [3], in assay [4], in assay [6] and in [7] was greater than 100 µM each time. Also, the TGI in assay [8], in assay [9], in assay [11] and in [10] was greater than 100 µM throughout.

In the case of `CC1(C)N=C(N)N=C(N)N1c1cccc(CCc2ccccc2)c1`, the GI50 in assay [1] is 2.65 µM; in assay [2], 0.269 µM; in assay [6], 208 nM; in assay [7], 3.42 µM; in assay [12] it was 22.4 µM; in assay [11], 3.57 µM. Also, in assay [10], the GI50 was 0.533 µM. The TGI in assay [1] was 34.4 µM; in assay [2], greater than 100 µM; in assay [6], greater than 100 µM; in assay [7], greater than 100 µM; in assay [12], greater than 100 µM; in assay [9], greater than 100 µM. Moreover, the TGI in assay [11] was 96.9 µM; in assay [10], 32.5 µM.

Consider `COc1cc(NC2CCCCC2O)c2nc(-c3ccc(Cl)cc3)ccc2c1` (configuration not stated), for which the GI50 in [1] is 18.7 µM; in assay [2] it was 5.95 µM; in [6], 12900 nM; in assay [7] it was 18.6 µM; in [12], 2.88 µM; in assay [9] it was 19.1 µM. The GI50 was 6.66 µM in assay [11] and 12.2 µM in assay [10]. Moreover, the TGI in [1] was 88.3 µM; in assay [2] it was 30.9 µM; in assay [6], greater than 100 µM; in [7], greater than 100 µM; in assay [12] it was 13.2 µM; in assay [9] it was greater than 100 µM. The TGI in [11] was 34.8 µM; in [10] it was greater than 100 µM.

In the case of `COc1cc(-c2nn(-c3cccc(NC(=O)CCN4CCN(c5ccccc5)CC4)c3)cc2-c2ccncc2)ccc1Cl`, the GI50 in [1] is 2.92 µM; in [2], 2.02 µM; in [6] it was 2850 nM; in assay [7], 4.13 µM; in assay [12], 4.61 µM; in assay [9], 3.15 µM. In addition, the GI50 in assay [11] is 3.29 µM; in assay [10], 5.29 µM. In addition, the TGI in assay [1] is 19.5 µM; in assay [2] it was 5.47 µM; in assay [6], greater than 100 µM; in [7] it was greater than 100 µM; in assay [12] it was greater than 100 µM; in assay [9], greater than 100 µM. In addition, the TGI in [11] came out at 17.9 µM; in [10] it was 95.5 µM.

For `CC(=O)OCC1OC(n2c3c(cc(C#N)c2=S)CCCC3)C(OC(C)=O)C(OC(C)=O)C1OC(C)=O` (configuration not stated), the GI50 in [1] is > 100 µM and 32.4 µM; in [2], 20.7 µM and > 100 µM; in assay [6] it was greater than 93300 nM; in assay [12], > 100 µM and 25.5 µM. Besides, the TGI was greater than 100 µM in assay [1]; 57.3 µM and > 100 µM in [2]; greater than 100 µM in assay [6]; greater than 100 µM in [7]; greater than 100 µM in assay [12]; greater than 100 µM in [9]. The TGI in assay [11] and in assay [10] was greater than 100 µM throughout.

In the case of `O=C1OC(=O)C([Se]c2ccccc2)=C1[Se]c1ccccc1`, the TGI in assay [1], in [2], in [4], in assay [5], in assay [6] and in assay [7] was greater than 100 µM each time. Also, the TGI in [8], in assay [9], in assay [11] and in assay [10] was greater than 100 µM in each case.

On to `COc1ccc(-c2csc(Nc3cccc(-c4csc(C)n4)c3)n2)cc1`, for which the GI50 is 24.7 µM in assay [1]; 0.389 µM in assay [2]; 1800 nM in assay [6]; 6.12 µM in assay [7]; 4.68 µM in assay [12]; 3.45 µM in [9]. Besides, the figures for the GI50 in assay [11] and in [10] were 12.6 µM and 3.26 µM, respectively. Also, the TGI is greater than 50 µM in [1]; 11.8 µM in [2]; greater than 50 µM in assay [6]; 19.7 µM in [7]; greater than 37.9 µM in assay [12]; 48.6 µM in assay [9]. In addition, the TGI was 49.2 µM in assay [11] and 19.7 µM in [10].

Turning to `Cc1cc(S(N)(=O)=O)c(S/C(=N\NS(=O)(=O)c2ccccc2)c2ccc(Cl)cc2)cc1Cl`, the GI50 in assay [1] was 30.3 µM; in assay [2], greater than 100 µM; in [6], 77000 nM; in [7], greater than 100 µM; in [12], 39.8 µM; in [9], greater than 100 µM. Also, the GI50 in assay [11] was 43 µM; in [10], 54.5 µM. The TGI in assay [1] is 84.9 µM; in assay [2] it was greater than 100 µM; in assay [6], greater than 100 µM; in assay [7], greater than 100 µM; in assay [12], greater than 100 µM; in [9], greater than 100 µM. In addition, the TGI in assay [11] and in assay [10] was greater than 100 µM throughout.

`COc1cc2c(c(OC)c1OC)C(=O)NCCC2`: the TGI in assay [1], in assay [2], in assay [3], in assay [4], in assay [5] and in assay [6] was greater than 100 µM in each case. Also, the TGI in assay [7], in assay [8], in [9], in assay [11] and in assay [10] was greater than 100 µM throughout.
